For 39 compounds, IC50 and Ki results are on record in ChEMBL document CHEMBL1148820, “Preparation and optimization of a series of 3-carboxamido-5-phenacylaminopyrazole bradykinin B1 receptor antagonists” (J Med Chem, 2007).

In test [1] the target is T1, B1 bradykinin receptor (Homo sapiens, UniProt P46663).
T1 sequence (P46663 whole entry): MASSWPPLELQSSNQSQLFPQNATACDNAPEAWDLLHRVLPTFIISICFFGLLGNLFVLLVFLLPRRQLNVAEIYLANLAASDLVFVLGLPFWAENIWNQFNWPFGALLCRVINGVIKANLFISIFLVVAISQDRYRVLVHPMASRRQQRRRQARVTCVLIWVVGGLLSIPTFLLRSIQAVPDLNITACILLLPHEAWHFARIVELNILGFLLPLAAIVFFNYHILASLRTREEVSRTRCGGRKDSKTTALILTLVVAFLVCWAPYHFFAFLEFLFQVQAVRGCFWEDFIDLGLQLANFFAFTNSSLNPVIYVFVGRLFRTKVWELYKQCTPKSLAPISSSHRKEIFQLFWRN
As to the kind of experiment: Antagonist activity at human bradykinin B1 receptor in IL1-beta stimulated IMR90 cells by FLIPR assay. It is filed as functional, cell-based, IMR-90.

Test [2] concerns the target T1, B1 bradykinin receptor. Description: Displacement of [3H]DAKA from human bradykinin B1 receptor in IL1-beta stimulated IMR90 cells. The test is classed as cell-based, IMR-90. In general terms: Loss of bound radioactivity is the signal in a displacement assay; it reports binding, not function.

SMILES strings stand for the structures. A value given as a limit tells only on which side of the number the result lay.

What is called IC50 is the midpoint of a concentration-inhibition curve. Read a low IC50 as inhibition by little substance. By Ki is commonly meant a dissociation constant, usually derived from enzyme kinetics or from competition with a known ligand. Read a low Ki as higher affinity.

`Cn1nc(NC(=O)c2ccccc2Cl)c(Br)c1C(=O)NCCC1CCN(c2ccncc2)CC1` gave an IC50 against B1 bradykinin receptor [1] of 640 nM.

With `O=C(Nc1c(Br)c(C(=O)NCCC2CCN(c3ccncc3)CC2)nn1-c1ccccn1)c1ccccc1Cl`, it took 12 nM to reach half-maximal inhibition on B1 bradykinin receptor [1] (IC50).

Consider `O=C(Nc1ccccc1)c1cc(NC(=O)c2ccccc2Cl)[nH]n1`, for which, on B1 bradykinin receptor [1], the IC50 is above 10000 nM.

Compound `Cc1c(C(=O)Nc2ccccc2)n[nH]c1NC(=O)c1ccccc1Cl` registered an IC50 on B1 bradykinin receptor [1] of 2000 nM.

With `NC(=O)[C@@H](NC(=O)c1n[nH]c(NC(=O)c2ccccc2Cl)c1Br)c1ccccc1`, it took 1700 nM to reach half-maximal inhibition against B1 bradykinin receptor [1] (IC50).

`O=C(Nc1[nH]nc(C(=O)NCCC2CCN(c3ccncc3)CC2)c1F)c1ccccc1Cl` had an IC50 at B1 bradykinin receptor [1] of 23 nM.

As for `Cc1c(C(=O)NCCC2CCN(c3ccncc3)CC2)n[nH]c1NC(=O)c1ccccc1Cl`, the IC50 against B1 bradykinin receptor [1] is 9.3 nM.

On B1 bradykinin receptor [1], `CC(=O)Nc1[nH]nc(C(=O)NC2N=C(c3ccccc3)c3ccccc3NC2=O)c1Br` (configuration not stated) displayed an IC50 above 10000 nM.

For `COC(=O)[C@@H](NC(=O)c1n[nH]c(NC(=O)c2ccccc2Cl)c1Br)c1ccccc1`, the Ki on B1 bradykinin receptor [2] came to 73 nM. Moreover, at B1 bradykinin receptor [1], the IC50 turned out to be 290 nM.

Consider `Cn1nc(C(=O)NCCC2CCN(c3ccncc3)CC2)c(Br)c1NC(=O)c1ccccc1Cl`, for which the IC50 against B1 bradykinin receptor [1] stood at 44 nM.

On to `O=C(Nc1[nH]nc(C(=O)NCCc2ccncc2)c1Br)c1ccccc1Cl`, for which the affinity on B1 bradykinin receptor [2], expressed as Ki, was 120 nM. Moreover, it took 490 nM to reach half-maximal inhibition against B1 bradykinin receptor [1] (IC50).

For `Nc1cccc(N2CCC(CNC(=O)c3n[nH]c(NC(=O)c4ccccc4Cl)c3Br)CC2)n1`, the IC50 against B1 bradykinin receptor [1] worked out at 13 nM.

As for `COc1ccc(-n2nc(C(=O)NCCC3CCN(c4ccncc4)CC3)c(Br)c2NC(=O)c2ccccc2Cl)cc1`, at B1 bradykinin receptor [1], it took 1200 nM to reach half-maximal inhibition (IC50).

Turning to `CN1CCC(N2CCC(CCNC(=O)c3nn(-c4ccccc4)c(NC(=O)c4ccccc4Cl)c3Br)CC2)CC1`, half-maximal inhibition against B1 bradykinin receptor [1] (IC50) required 320 nM.

Take `CN(C)CCn1nc(C(=O)NCCC2CCN(c3ccncc3)CC2)c(Br)c1NC(=O)c1ccccc1Cl`: the midpoint of inhibition at B1 bradykinin receptor [1], the IC50, lay at 1600 nM.

`O=C(Nc1c(Br)c(C(=O)N[C@@H]2CCCCNC2=O)nn1-c1ccccc1)c1ccccc1Cl` gave an IC50 against B1 bradykinin receptor [1] above 10000 nM.

On B1 bradykinin receptor [1], `CC(C)(C)c1ccc(-c2n[nH]c(NC(=O)c3ccccc3Cl)c2Br)cc1` registered an IC50 of 3200 nM.

On B1 bradykinin receptor [1], `CN1CCC(CCNC(=O)c2n[nH]c(NC(=O)c3ccccc3Cl)c2Br)CC1` registered an IC50 of 86 nM.

In the case of `CC[C@@H](NC(=O)c1n[nH]c(NC(=O)c2ccccc2Cl)c1Br)C(=O)N(C)C`, the concentration for half-maximal inhibition (IC50) against B1 bradykinin receptor [1] was determined as 82 nM.

Compound `O=C(Nc1[nH]nc(C(=O)N[C@@H]2CCCCNC2=O)c1Br)c1ccccc1Cl` gave an IC50 against B1 bradykinin receptor [1] of 290 nM.

In turn, `C[C@@H](NC(=O)c1n[nH]c(NC(=O)c2ccccc2Cl)c1Br)c1ccccc1` displayed an IC50 on B1 bradykinin receptor [1] of 210 nM.

Compound `O=C(Nc1c(Br)c(C(=O)NCCC2CCN(c3ccncc3)CC2)nn1Cc1ccccc1)c1ccccc1Cl` returned an IC50 at B1 bradykinin receptor [1] of 71 nM.

The compound `O=C(Nc1c(Br)c(C(=O)N[C@@H]2N=C(c3ccccc3)c3ccccc3NC2=O)nn1-c1ccccc1)c1ccccc1Cl` had an IC50 against B1 bradykinin receptor [1] above 10000 nM.

For `O=C(Nc1c(Br)c(C(=O)NCCC2CCN(c3ccncc3)CC2)nn1-c1ccccc1)c1ccccc1Cl`, on B1 bradykinin receptor [1], it took 3.5 nM to reach half-maximal inhibition (IC50).

With `O=C(Nc1[nH]nc(C(=O)NC2N=C(c3ccccc3)c3ccccc3NC2=O)c1Br)c1ccccc1` (configuration not stated), it took 49 nM to reach half-maximal inhibition against B1 bradykinin receptor [1] (IC50).

On B1 bradykinin receptor [1], `O=C(NCCC1CCN(c2ccncc2)CC1)c1cc(NC(=O)c2ccccc2Cl)[nH]n1` yielded an IC50 of 200 nM.

As to `O=C(Nc1[nH]nc(C(=O)NCCC2CCN(c3ccncc3)CC2)c1Cl)c1ccccc1Cl`, on B1 bradykinin receptor [1], inhibition was half-maximal at 3.9 nM (IC50).

The compound `O=C(Nc1[nH]nc(C(=O)Nc2ccc(CCC3=NCCN3)cc2)c1Br)c1ccccc1Cl` displayed an IC50 on B1 bradykinin receptor [1] of 0.075 nM.

On B1 bradykinin receptor [1], `C[C@@H](NC(=O)c1n[nH]c(NC(=O)c2ccccc2Cl)c1Br)C(=O)N1CCCCC1` yielded an IC50 of 16 nM.

For the compound `O=C(Nc1[nH]nc(C(=O)Nc2ccccc2)c1Cl)c1ccccc1Cl`, on B1 bradykinin receptor [1], the IC50 is 700 nM.

Compound `O=C(Nc1[nH]nc(C(=O)NC2N=C(c3ccccc3)c3ccccc3NC2=O)c1Br)c1ccccc1F` (configuration not stated) registered an IC50 against B1 bradykinin receptor [1] of 10 nM.

As for `O=C(Nc1[nH]nc(C(=O)Nc2ccncc2)c1Br)c1ccccc1Cl`, on B1 bradykinin receptor [1], half-maximal inhibition (IC50) required 560 nM.

On B1 bradykinin receptor [1], `CC(C)C(=O)Nc1[nH]nc(C(=O)NC2N=C(c3ccccc3)c3ccccc3NC2=O)c1Br` (configuration not stated) showed an IC50 of 650 nM.

In turn, `O=C(Nc1[nH]nc(C(=O)Nc2ccccc2)c1Br)c1ccccc1Cl` returned an inhibitory constant (Ki) on B1 bradykinin receptor [2] of 200 nM. The same compound returned an IC50 on B1 bradykinin receptor [1] of 530 nM.

`CN1CCC(N2CCC(CCNC(=O)c3n[nH]c(NC(=O)c4ccccc4Cl)c3Br)CC2)CC1` came in with an IC50 at B1 bradykinin receptor [1] of 1.8 nM.

`Cc1nc(-c2n[nH]c(NC(=O)c3ccccc3Cl)c2Br)cs1` yielded an IC50 against B1 bradykinin receptor [1] of 1100 nM.

At B1 bradykinin receptor [1], `O=C(Nc1[nH]nc(C(=O)NCCC2CCN(c3ccncc3)CC2)c1Br)c1ccccc1Cl` returned an IC50 of 3 nM.

Take `O=C(Nc1[nH]nc(C(=O)N[C@@H]2CN3CCC2CC3)c1Br)c1ccccc1Cl`: the IC50 on B1 bradykinin receptor [1] is 60 nM.

`O=C(Nc1[nH]nc(C(=O)NC2N=C(c3ccccc3)c3ccccc3NC2=O)c1Br)c1ccccc1Cl` (racemic) had an IC50 on B1 bradykinin receptor [1] of 5.2 nM.
